Earlier results, collected in patent publication US6514531B1, “Controlled-release dosage forms comprising zolpidem or a salt thereof” (Sanofi-Synthelabo, priority 1998, dated 2003).

## Cc1ccc(-c2nc3ccc(C)cn3c2CC(=O)N(C)C)cc1 [zolpidem]
Between 5 and 10 mg in conventional forms
  kinetics in the therapeutical dose range: linear kinetics
Hypnotic action, oral, conventional forms
  duration of action: up to 6 hours
